Laboratory results: the supplement of paper PMC10307832

How the values were obtained:
Test in all cases: relative viability (nuclei count vs DMSO), 5 days (fraction); higher = more cells survive
A549 = test system: A549
Method in brief: (§1)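 Lung cancer cell lines, seeded in 1536-well plates, were treated the following day by pin tool with a single drug or with five library-drug doses (not always all listed) in √10 steps on top of a fixed anchor-drug dose. Cells were fixed and nuclei stained in one step after 5 days, and nuclei were counted. Relative viability is the nuclei count for treated wells divided by that for vehicle wells, reported as medians of duplicate plates.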

EBC-1 = test system: EBC-1
Method in brief: as §1

Calu-6 = test system: Calu-6
Method in brief: as §1

IA-LM = test system: IA-LM
Method in brief: as §1

NCI-H1299 = test system: NCI-H1299
Method in brief: as §1

NCI-H1703 = test system: NCI-H1703
Method in brief: as §1

SMILES | relative viability (A549; first compound 0.04 µM) | relative viability (A549; first compound 0.1265 µM) | relative viability (A549; first compound 0.4 µM) | relative viability (A549; first compound 1.265 µM) | relative viability (A549; first compound 4 µM) | relative viability (EBC-1; first compound 0.04 µM) | relative viability (EBC-1; first compound 0.1265 µM) | relative viability (EBC-1; first compound 0.4 µM) | relative viability (EBC-1; first compound 1.265 µM) | relative viability (EBC-1; first compound 4 µM) | relative viability (Calu-6; first compound 0.04 µM) | relative viability (Calu-6; first compound 0.1265 µM) | relative viability (Calu-6; first compound 0.4 µM) | relative viability (Calu-6; first compound 1.265 µM) | relative viability (Calu-6; first compound 4 µM) | relative viability (IA-LM; first compound 0.04 µM) | relative viability (IA-LM; first compound 0.1265 µM) | relative viability (IA-LM; first compound 0.4 µM) | relative viability (IA-LM; first compound 1.265 µM) | relative viability (IA-LM; first compound 4 µM) | relative viability (NCI-H1299; first compound 0.04 µM) | relative viability (NCI-H1299; first compound 0.1265 µM) | relative viability (NCI-H1299; first compound 0.4 µM) | relative viability (NCI-H1299; first compound 1.265 µM) | relative viability (NCI-H1299; first compound 4 µM) | relative viability (NCI-H1703; first compound 0.04 µM) | relative viability (NCI-H1703; first compound 0.1265 µM) | relative viability (NCI-H1703; first compound 0.4 µM) | relative viability (NCI-H1703; first compound 1.265 µM) | relative viability (NCI-H1703; first compound 4 µM)
COc1cc(N2CCC(C(N)=O)CC2)ccc1Nc1nc(N)c(Cl)c(Nc2ccccc2S(=O)(=O)C(C)C)n1 [HG-5-88-01] + CS(=O)(=O)CCNCc1ccc(-c2ccc3ncnc(Nc4ccc(OCc5cccc(F)c5)c(Cl)c4)c3c2)o1 [Lapatinib] (partner 2 µM) | 0.984 | 0.917 | 0.845 | 0.573 | 0.411 | 0.221 | 0.22 | 0.209 | 0.21 | 0.195 | 1.11 | 1.05 | 1.19 | 1.04 | 0.774 | 0.891 | 0.864 | 0.721 | 0.712 | 0.404 | 0.914 | 0.983 | 0.87 | 1.05 | 0.963 | 0.832 | 1.15 | 1.22 | 1.08 | 0.619
Clc1ccc(Nc2nnc(Cc3ccncc3)c3ccccc23)cc1 [Vatalanib] + CS(=O)(=O)CCNCc1ccc(-c2ccc3ncnc(Nc4ccc(OCc5cccc(F)c5)c(Cl)c4)c3c2)o1 [Lapatinib] (partner 2 µM) | 0.991 | 0.918 | 1.05 | 1 | 1.01 | 0.165 | 0.204 | 0.22 | 0.232 | 0.202 | 1.14 | 1.02 | 1.09 | 1.05 | 1.07 | 0.869 | 0.816 | 0.885 | 0.674 | 0.674 | 0.96 | 0.961 | 0.931 | 0.939 | 0.969 | 1.28 | 1.05 | 1.4 | 0.611 | 0.435
C[C@@H]1CN(CC(=O)Nc2ccc3c(c2)Cc2cccc(-c4cc(=O)cc(N5CCOCC5)o4)c2S3)C[C@H](C)O1 + C[C@]1(O)C[C@@H](c2nc(-c3ccc4ccc(-c5ccccc5)nc4c3)c3c(N)nccn32)C1 [Linsitinib] (partner 1 µM) | 0.471 | 0.709 | 0.58 |  | 0.488 | 1.01 | 0.867 | 0.84 |  | 0.599 | 0.858 | 0.911 | 0.938 |  | 0.673 | 0.713 | 0.549 | 0.528 |  | 0.283 | 1.01 | 0.978 | 0.964 |  | 0.822 | 0.853 | 1.24 | 0.549 |  | 0.492
C[C@@H]1CN(CC(=O)Nc2ccc3c(c2)Cc2cccc(-c4cc(=O)cc(N5CCOCC5)o4)c2S3)C[C@H](C)O1 + Cc1nc(NC(=O)N2CCC[C@H]2C(N)=O)sc1-c1ccnc(C(C)(C)C(F)(F)F)c1 [Alpelisib] (partner 2 µM) | 0.776 | 0.753 | 0.826 |  | 0.457 | 0.905 | 0.826 | 0.386 |  | 0.506 | 1.03 | 1.03 | 0.97 |  | 0.79 | 0.884 | 0.801 | 0.895 |  | 0.387 | 1.02 | 1.05 | 1.05 |  | 1.02 | 0.426 | 0.33 | 0.299 |  | 0.277
